Among the data in ChEMBL document CHEMBL1130905, “Asymmetric synthesis of antimitotic combretadioxolane with potent antitumor activity against multi-drug resistant cells” (Bioorg Med Chem Lett, 1998) are IC50 and GI50 values, retold here.

In experiment [1] the target is T1, Tubulin (Sus scrofa, UniProt P02554+P02550). As to the kind of experiment: In vitro tubulin polymerization-inhibitory activity. The format is protein assay.
The subject of experiment [2] is PC-12. As to the kind of experiment: Compound was evaluated for in vitro growth inhibition activity against multi drug resistant (MDR) PC-12 cell line. The format is functional. The settings on record: Rattus norvegicus.
Experiment [3] deals with PC-6. Description: Compound was evaluated for in vitro growth inhibition activity against sensitive PC-6 cell line. The format is functional, Rattus norvegicus.
Experiment [4] addresses T1, Tubulin. As to the kind of experiment: In vitro tubulin polymerization-inhibitory activity; 4-6. The format is protein assay.

For orientation: IC50 means the midpoint of a concentration-inhibition curve. Higher therefore signals weaker potency. Turning to `COc1ccc([C@H]2OCO[C@@H]2c2cc(OC)c(OC)c(OC)c2)cc1O`, the IC50 in experiment [1] was above 50000 nM.

Usually GI50 stands for the concentration giving 50% growth inhibition. Higher therefore signals less potent growth inhibition. As to `COc1ccc([C@@H]2OCO[C@H]2c2cc(OC)c(OC)c(OC)c2)cc1O`, the values for the GI50 in experiment [2] and in experiment [3] (Homo sapiens) were 5.19 nM and 5.41 nM, respectively. The IC50 in experiment [4] worked out at 4000 nM.

With `CC[C@]1(O)C[C@H]2CN(CCc3c([nH]c4ccccc34)[C@@](C(=O)OC)(c3cc4c(cc3OC)N(C=O)[C@H]3[C@@](O)(C(=O)OC)[C@H](OC(C)=O)[C@]5(CC)C=CCN6CC[C@]43[C@@H]65)C2)C1` [VINCRISTINE], the 50% growth inhibitory concentration (GI50) amounted to 104 nM in experiment [2] and 1.14 nM in experiment [3] (Homo sapiens).

Regarding CISPLATIN, the GI50 is 300 nM in experiment [2] and 563 nM in experiment [3] (Rattus norvegicus).
